From patent EP0183129A1, “Quinolonecarboxylic acid derivatives” (KYORIN PHARMACEUTICAL CO., LTD., priority 1984, dated 1986)
Converted amounts (≈) assume the structure as drawn. Counter-ions that a name gives are not always drawn.

Key:
[1] = system: Fusobacterium varium KYA 8501; assay: In vitro antibacterial activity, MIC (standard strain); type: cell-based; conditions: Fusobacterium varium, KYA8501, Fusobacterium varium KYA 8501; 10^6 cells/ml; standard strain; read-out: MIC
S. pyogenes 3130 = assay: In vitro antibacterial activity, MIC (clinical isolates); type: cell-based; conditions: Streptococcus pyogenes, read-out: MIC
S. agalactiae 4470 = assay: as above; type: cell-based; conditions: Streptococcus agalactiae; S. agalactiae 4470; 10^6 cells/ml; clinical isolate; read-out: MIC
[2] = system: Clostridium perfringens KYA 13123; assay: microbe, parasite or virus in culture; type: cell-based; conditions: KYA13123
E. coli ATCC 10536 = assay: In vitro antibacterial activity, MIC (standard strain); type: cell-based; conditions: Escherichia coli, ATCC10536; E. coli ATCC 10536; 10^6 cells/ml; standard strain; read-out: MIC
[3] = system: Citrobacter freundii IID 976; assay: as above; type: cell-based; conditions: IID976; Citrobacter freundii IID 976; 10^6 cells/ml; standard strain; read-out: MIC
S. epidermidis IID 866 = assay: as above; type: cell-based; conditions: Staphylococcus epidermidis, IID866, S. epidermidis IID 866; 10^6 cells/ml; standard strain; read-out: MIC
Shigella sonnei IID 969 = assay: as above; type: cell-based; conditions: IID969, 10^6 cells/ml
Method: Experiment-1 In vitro antibacterial activity
The in vitro antibacterial activity against gram-positive and gram-negative bacteria has been investivated.
The minimum inhibitory concentration (MIC) was determined in accordance with the method recommended by Japan Society of Chemotherapy.

[4] = system: Staphylococcus aureus 209 P; assay: as above; type: cell-based; conditions: Staphylococcus aureus 209 P; 10^6 cells/ml; standard strain; read-out: MIC
[5] = system: Bacteroides fragilis GM 7000; assay: as above; type: cell-based; conditions: GM7000; Bacteroides fragilis GM 7000; 10^6 cells/ml; standard strain; read-out: MIC
[6] = system: Bacillus subtilis PCI 219; assay: as above; type: cell-based; conditions: PCI219; Bacillus subtilis PCI 219; 10^6 cells/ml; standard strain; read-out: MIC
E. coli ML 4707 = assay: as above; type: cell-based; conditions: Escherichia coli, ML4707; E. coli ML 4707; 10^6 cells/ml; standard strain; read-out: MIC
[7] = system: Enterobacter cloacae IID 977; assay: as above; type: cell-based; conditions: Enterobacter cloacae, IID977, Enterobacter cloacae IID 977; 10^6 cells/ml; standard strain; read-out: MIC
B. fragilis 25285 = assay: as above; type: cell-based, Bacteroides fragilis; conditions: Bacteroides fragilis, 25285, B. fragilis 25285; 10^6 cells/ml; standard strain; read-out: MIC
[8] = system: Morganella morganii IID 602; assay: as above; type: cell-based; conditions: IID602; Morganella morganii IID 602; 10^6 cells/ml; standard strain; read-out: MIC
[9] = system: S. aureus IID 670 (Terajima); assay: as above; type: cell-based, Staphylococcus aureus; conditions: Staphylococcus aureus, IID670, S. aureus IID 670 (Terajima); 10^6 cells/ml; standard strain; read-out: MIC
P. aeruginosa IFO 12689 = assay: as above; type: cell-based, Pseudomonas aeruginosa; conditions: Pseudomonas aeruginosa, IFO12689; P. aeruginosa IFO 12689; 10^6 cells/ml; standard strain; read-out: MIC
[10] = system: Alcaligenes faecalis 0104002; assay: as above; type: cell-based; conditions: Alcaligenes faecalis, 0104002, Alcaligenes faecalis 0104002; 10^6 cells/ml; standard strain; read-out: MIC
S. pyogenes 4372 = assay: In vitro antibacterial activity, MIC (clinical isolates); type: cell-based; conditions: Streptococcus pyogenes; S. pyogenes 4372; 10^6 cells/ml; clinical isolate; read-out: MIC
S. faecalis IID 682 = assay: In vitro antibacterial activity, MIC (standard strain); type: cell-based; conditions: Enterococcus faecalis, IID682; S. faecalis IID 682; 10^6 cells/ml; standard strain; read-out: MIC
P. aeruginosa IID 1210 = assay: as above; type: cell-based; conditions: Pseudomonas aeruginosa, IID1210; P. aeruginosa IID 1210; 10^6 cells/ml; standard strain; read-out: MIC
S. pneumoniae S-4288 = assay: In vivo antibacterial activity against systemic infection in mice; set-up: species or system mice (ICR-S); conditions: Streptococcus pneumoniae, S4288; mice (ICR-S); oral, an hour after intraperitoneal infection; challenge dose 7.5 x 10^4 ~ 4.8 x 10^6 cfu/mouse; read-out: ED50 S. pneumoniae S-4288
Method: (§1) Experiment-2 In vivo antibacterial activity against systemic infection in mice (ICR-S)
(§2) The infections were produced by intraperitoneal injection of a suspension of the bacterial culture corresponding to the germ studied. The products were administered orally at an hour after the infection.

S. aureus Smith = assay: as above; set-up: species or system mice (ICR-S); conditions: Staphylococcus aureus, po, mice (ICR-S), an hour after intraperitoneal infection, challenge dose 6.0 x 10^5 cfu/mouse, read-out: ED50 S. aureus Smith
Method: as §1, §2

M. pneumoniae Mac. = assay: In vitro antibacterial activity against Mycoplasma, MIC; type: cell-based; conditions: Mycoplasmoides pneumoniae, 120 h; M. pneumoniae Mac.; no visible growth after incubation for 5 days; read-out: MIC
Excerpt: Experiment-3 In vitro antibacterial activity against Mycoplasma

S. pneumoniae 24 = assay: In vitro antibacterial activity, MIC (clinical isolates); type: cell-based; conditions: Streptococcus pneumoniae; S. pneumoniae 24; 10^6 cells/ml; clinical isolate; read-out: MIC
S. pneumoniae 3227 = assay: as above; type: cell-based; conditions: Streptococcus pneumoniae; S. pneumoniae 3227; 10^6 cells/ml; clinical isolate; read-out: MIC
S. pneumoniae 28 = assay: as above; type: cell-based; conditions: Streptococcus pneumoniae, 10^6 cells/ml, clinical isolate
S. pneumoniae 2054 = assay: as above; type: cell-based; conditions: Streptococcus pneumoniae; S. pneumoniae 2054; 10^6 cells/ml; clinical isolate; read-out: MIC

SMILES | MIC [1] [µg/mL] | MIC (S. pyogenes 3130) [µg/mL] | MIC (S. agalactiae 4470) [µg/mL] | MIC [2] [µg/mL] | MIC (E. coli ATCC 10536) [µg/mL] | MIC [3] [µg/mL] | MIC (S. epidermidis IID 866) [µg/mL] | MIC (Shigella sonnei IID 969) [µg/mL] | MIC [4] [µg/mL] | MIC [5] [µg/mL] | MIC [6] [µg/mL] | MIC (E. coli ML 4707) [µg/mL] | MIC [7] [µg/mL] | MIC (B. fragilis 25285) [µg/mL] | MIC [8] [µg/mL] | MIC [9] [µg/mL] | MIC (P. aeruginosa IFO 12689) [µg/mL] | MIC [10] [µg/mL] | MIC (S. pyogenes 4372) [µg/mL] | MIC (S. faecalis IID 682) [µg/mL] | other results
CNCC1CCN(c2c(F)cc3c(=O)c(C(=O)O)cn(C4CC4)c3c2Cl)C1 (stereo not drawn) [Example 12, 8-Chloro-l-cyclopropyl-6-fluoro-1,4-dihydro-7-(3-methylaminomethyl-1-pyrrolidinyl)-4-oxo-3-quinolinecarboxylic acid hydrochloride] | 0.39 | 0.05 | 0.05 | 0.1 | 0.025 | 0.05 | 0.025 | 0.025 | 0.0125 | 0.2 | 0.0125 | 0.025 | 0.05 | 0.1 | 0.1 | 0.025 | 0.78 | 0.39 | 0.05 | 0.05 | MIC (P. aeruginosa IID 1210): 1.56 µg/mL; ED50 (S. pneumoniae S-4288): 6.5 mg/kg; ED50 (S. aureus Smith): 0.5 mg/kg; MIC (M. pneumoniae Mac.): 0.05 µg/mL; MIC (S. pneumoniae 24): 0.05 µg/mL; MIC (S. pneumoniae 3227): 0.05 µg/mL; MIC (S. pneumoniae 28): 0.05 µg/mL; MIC (S. pneumoniae 2054): 0.05 µg/mL
CCNCC1CCN(c2c(F)cc3c(=O)c(C(=O)O)cn(C4CC4)c3c2Cl)C1 (stereo not drawn) [Example 13, 8-Chloro-l-cyclorpropyl-6-fluoro-1,4-dihydro-7-(3-ethylaminomethyl-l-pyrrolidinyl)-4-oxo-3-quinolinecarboxylic acid] | 0.39 (≈ 0.956 µM) | 0.05 (≈ 0.123 µM) | 0.05 (≈ 0.123 µM) | 0.05 (≈ 0.123 µM) | 0.025 (≈ 0.0613 µM) | 0.05 (≈ 0.123 µM) | 0.025 (≈ 0.0613 µM) | 0.025 (≈ 0.0613 µM) | 0.0125 (≈ 0.0306 µM) | 0.1 (≈ 0.245 µM) | 0.0125 (≈ 0.0306 µM) | 0.025 (≈ 0.0613 µM) | 0.1 (≈ 0.245 µM) | 0.05 (≈ 0.123 µM) | 0.1 (≈ 0.245 µM) | 0.025 (≈ 0.0613 µM) | 1.56 (≈ 3.82 µM) | 0.39 (≈ 0.956 µM) | 0.05 (≈ 0.123 µM) | 0.05 (≈ 0.123 µM) | MIC (P. aeruginosa IID 1210): 1.56 µg/mL (≈ 3.82 µM); ED50 (S. pneumoniae S-4288): 2 mg/kg; ED50 (S. aureus Smith): 0.6 mg/kg; MIC (M. pneumoniae Mac.): 0.05 µg/mL (≈ 0.123 µM); MIC (S. pneumoniae 24): 0.05 µg/mL (≈ 0.123 µM); MIC (S. pneumoniae 3227): 0.05 µg/mL (≈ 0.123 µM); MIC (S. pneumoniae 28): 0.05 µg/mL (≈ 0.123 µM); MIC (S. pneumoniae 2054): 0.05 µg/mL (≈ 0.123 µM)
